Measured values published in patent publication US20040110802A1, “Antibacterial benzoic acid derivatives” (priority 2002, published 2004).
Converted amounts (≈) assume the structure as drawn.

System: SAUR 9218
Assay: MIC Test Method, standard agar dilution
Assay type: cell-based
Details: agar dilution, Mueller Hinton agar, incubated overnight at 35° C.; lowest concentration that inhibits visible growth; read-out: SAUR 9218 MIC
How it was run: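 Agar dilution in Mueller Hinton agar with serial 2-fold compound dilutions. Staphylococcus aureus strain 9218 spotted at approximately 10^4 to 10^5 cells per spot, incubated overnight at 35 °C; MIC (μg/ml) is the lowest concentration preventing visible growth.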

Row | MIC [µg/mL] | SMILES
1 | 4 (≈ 11.4 µM) | COc1cnc(C(=O)Nc2ccc(Br)cc2C(=O)O)cn1
2 | > 128 | O=C(O)c1cc(Br)ccc1NC(=O)c1cc(Cl)cc[n+]1[O-]
3 | > 128 | Cc1sc(C(=O)Nc2ccc(Br)cc2C(=O)O)cc1S(=O)(=O)NC1CCN(Cc2ccccc2)CC1
4 | 0.125 (≈ 0.326 µM) | N#Cc1ccc(NC(=O)c2ccc(SC3CCOCC3)nc2)c(C(=O)O)c1
5 | 32 (≈ 76.1 µM) | O=C(Nc1ccc(Br)cc1C(=O)O)c1ccc(-c2ccc(Cl)cc2)o1
6 | 32 (≈ 66.5 µM) | Cc1sc(C(=O)Nc2ccc(C#N)cc2C(=O)O)cc1S(=O)(=O)Nc1ccc2c(c1)CCC2
7 | 2 (≈ 4.78 µM) | CC(C)(C)CC(=O)Nc1cccc2cc(C(=O)Nc3ccc(C#N)cc3C(=O)O)[nH]c12
8 | 0.25 (≈ 0.632 µM) | Cn1c(C(=O)Nc2ccc(C#N)cc2C(=O)O)cc2cccc(-c3ccccc3)c21
9 | > 128 | O=C(Nc1ccc(Br)cc1C(=O)O)C1=NS(=O)(=O)c2ccccc21
10 | 16 (≈ 30.3 µM) | Cc1sc(C(=O)Nc2ccc(C#N)cc2C(=O)O)cc1S(=O)(=O)N1CCN(c2ccc(F)cc2)CC1
11 | 2 (≈ 5.12 µM) | CCCC(=O)Nc1cccc2cc(C(=O)Nc3ccc(C#N)cc3C(=O)O)[nH]c12
12 | 8 (≈ 18.5 µM) | Cc1oc(C(=O)Nc2ccc(C#N)cc2C(=O)O)cc1S(=O)(=O)N1CCCC1CO (stereo not drawn)
13 | 32 (≈ 98.2 µM) | O=C(O)c1cc(Cl)ccc1/C=C/c1cc(-c2ccccc2)on1
14 | 4 (≈ 9.41 µM) | COCCOCCCSc1ccc(C(=O)Nc2ccc(Cl)cc2C(=O)O)cn1
15 | 0.25 (≈ 0.703 µM) | CCCCSc1ccc(C(=O)Nc2ccc(C#N)cc2C(=O)O)cn1
16 | 1 (≈ 2.04 µM) | O=C(Nc1ccc(I)cc1C(=O)O)c1cnc(SCc2ccccc2)cn1
17 | 2 (≈ 4.95 µM) | N#Cc1ccc(NC(=O)c2noc3ccc(NC(=O)C4CCC4)cc23)c(C(=O)O)c1
18 | 0.125 (≈ 0.321 µM) | C=CCOc1ccccc1-c1cc(C(=O)Nc2ccc(C#N)cc2C(=O)O)no1
19 | 8 (≈ 22.3 µM) | N#Cc1ccc(NC(=O)c2cncc(Oc3ccccc3)c2)c(C(=O)O)c1
20 | 0.5 | CCCCNCC(O)COc1cccc2cc(C(=O)Nc3ccc(C#N)cc3C(=O)O)n(C)c12.Cl (stereo not drawn)
21 | 2 (≈ 3.89 µM) | COc1ccc(OC)c(NC(=O)Nc2ccc3cc(C(=O)Nc4ccc(C#N)cc4C(=O)O)n(C)c3c2)c1
22 | 4 (≈ 12.4 µM) | N#Cc1ccc(NC(=O)c2cc3cccnc3s2)c(C(=O)O)c1
23 | 0.25 (≈ 0.75 µM) | N#Cc1ccc(NC(=O)c2cc(-c3ccccc3)on2)c(C(=O)O)c1
24 | 8 (≈ 14 µM) | N#Cc1ccc(NC(=O)c2cc(-c3ccccc3NS(=O)(=O)c3ccc(OC(F)(F)F)cc3)on2)c(C(=O)O)c1
25 | 0.25 (≈ 0.554 µM) | CC(C)OCC(O)COc1cccc2cc(C(=O)Nc3ccc(C#N)cc3C(=O)O)n(C)c12 (stereo not drawn)

Row | MIC [µg/mL] | SMILES
26 | > 128 | CSc1ncc(Cl)c(C(=O)Nc2ccc(Br)cc2C(=O)O)n1
27 | 16 (≈ 25.9 µM) | O=C(Nc1ccc(Br)cc1C(=O)O)c1csc(S(=O)(=O)N2CCN(c3cccc(C(F)(F)F)c3)CC2)c1
28 | 128 (≈ 381 µM) | Cc1cnc(C(=O)Nc2ccc(Br)cc2C(=O)O)cn1
29 | 4 (≈ 9.24 µM) | O=C(O)c1cc(Cl)ccc1NC(=O)c1cc2ccccc2n1CCCc1ccccc1
30 | 0.5 (≈ 1.27 µM) | CCCCCCSc1cnc(C(=O)Nc2ccc(Cl)cc2C(=O)O)cn1
31 | 0.25 (≈ 0.504 µM) | N#Cc1ccc(NC(=O)c2noc3ccc(-c4ccc(C(=O)N5CCOCC5)cc4)cc23)c(C(=O)O)c1
32 | 0.5 (≈ 1.21 µM) | N#Cc1ccc(NC(=O)c2noc3ccc(-c4ccccc4CO)cc23)c(C(=O)O)c1
33 | > 128 | O=C(Nc1ccc(Br)cc1C(=O)O)c1ccco1
34 | 0.5 (≈ 1.34 µM) | N#Cc1ccc(NC(=O)c2cc(OCc3ccccc3)ccn2)c(C(=O)O)c1
35 | 64 (≈ 111 µM) | O=C(Nc1ccc(Br)cc1C(=O)O)c1csc(S(=O)(=O)NC2CCN(Cc3ccccc3)CC2)c1
36 | 0.125 (≈ 0.325 µM) | CCCCCCSc1cnc(C(=O)Nc2ccc(C#N)cc2C(=O)O)cn1
37 | 8 (≈ 19.4 µM) | N#Cc1ccc(-c2cnc(C(=O)Nc3ccc(Br)cc3C(=O)O)o2)cc1
38 | > 128 | CCCCc1ccc(C(=O)Nc2ccc(Br)cc2C(=O)O)nc1
39 | 1 (≈ 3 µM) | CCn1c(C(=O)Nc2ccc(C#N)cc2C(=O)O)cc2ccccc21
40 | 2 (≈ 5.54 µM) | O=C(O)c1cc(Br)ccc1NC(=O)c1onc2ccccc12
41 | 2 (≈ 5.3 µM) | N#Cc1ccc(NC(=O)c2ncc(-c3ccc4c(c3)OCO4)o2)c(C(=O)O)c1
42 | 0.25 (≈ 0.605 µM) | CC(=O)OCCCCSc1ccc(C(=O)Nc2ccc(C#N)cc2C(=O)O)cn1
43 | 32 (≈ 99.9 µM) | Cn1nc(C(=O)Nc2ccc(C#N)cc2C(=O)O)c2ccccc21
44 | > 128 | CCCCN(CCCC)CCCNS(=O)(=O)c1cc(C(=O)Nc2ccc(Br)cc2C(=O)O)sc1C
45 | 0.125 (≈ 0.319 µM) | CC(C)Oc1ccccc1-c1cc(C(=O)Nc2ccc(C#N)cc2C(=O)O)no1
46 | 8 (≈ 14.9 µM) | Cc1sc(C(=O)Nc2ccc(Br)cc2C(=O)O)cc1S(=O)(=O)NC1Cc2ccccc2C1
47 | 0.25 (≈ 0.52 µM) | N#Cc1ccc(NC(=O)c2cc3cccc(NC(=O)CCCCc4ccccc4)c3[nH]2)c(C(=O)O)c1
48 | 1 (≈ 2.03 µM) | N#Cc1ccc(NC(=O)c2cc3cccc(NC(=O)c4cc(-c5ccccc5)on4)c3[nH]2)c(C(=O)O)c1
49 | 64 (≈ 125 µM) | Cc1sc(C(=O)Nc2ccc(C#N)cc2C(=O)O)cc1S(=O)(=O)N(C)CCC(O)c1ccccc1 (stereo not drawn)
50 | 0.25 (≈ 0.504 µM) | CCN(CC)S(=O)(=O)c1ccc2onc(C(=O)Nc3ccc(Br)cc3C(=O)O)c2c1

Row | MIC [µg/mL] | SMILES
51 | 2 (≈ 4.7 µM) | COCCOCCCSc1cnc(C(=O)Nc2ccc(Cl)cc2C(=O)O)cn1
52 | 32 (≈ 104 µM) | N#Cc1ccc(NC(=O)c2cc3cccn3cn2)c(C(=O)O)c1
53 | 0.5 (≈ 1.33 µM) | N#Cc1ccc(NC(=O)c2noc3ccc(NCC4CC4)cc23)c(C(=O)O)c1
54 | 0.125 (≈ 0.296 µM) | O=C(Nc1ccc(Br)cc1C(=O)O)c1cc(-c2ccccc2Cl)on1
55 | 4 (≈ 12.6 µM) | CC1=C(C(=O)Nc2ccc(C#N)cc2C(=O)O)Cc2ccccc21
56 | 0.5 (≈ 0.972 µM) | N#Cc1ccc(NC(=O)c2cc3cccc(NC(=O)Cc4ccc(-c5ccccc5)cc4)c3[nH]2)c(C(=O)O)c1
57 | 0.125 (≈ 0.298 µM) | CCCC(C)Oc1ccccc1-c1cc(C(=O)Nc2ccc(C#N)cc2C(=O)O)no1 (stereo not drawn)
58 | 0.25 (≈ 0.627 µM) | CCCCCCCSc1cnc(C(=O)Nc2ccc(C#N)cc2C(=O)O)cn1
59 | 0.5 (≈ 0.946 µM) | N#Cc1ccc(NC(=O)c2cc3cccc(NC(=O)c4ccccc4CCc4ccccc4)c3[nH]2)c(C(=O)O)c1
60 | 0.25 (≈ 0.539 µM) | N#Cc1ccc(NC(=O)c2cc3cccc(NC(=O)c4cc5ccccc5[nH]4)c3[nH]2)c(C(=O)O)c1
61 | 8 (≈ 23.2 µM) | N#Cc1ccc(NC(=O)c2cc(CCC(O)CO)on2)c(C(=O)O)c1 (stereo not drawn)
62 | 1 (≈ 2.53 µM) | CC(C)Sc1ccc(C(=O)Nc2ccc(Br)cc2C(=O)O)cn1
63 | 1 (≈ 2.1 µM) | N#Cc1ccc(NC(=O)c2noc3cc(NS(=O)(=O)Cc4ccccc4)ccc23)c(C(=O)O)c1
64 | 1 (≈ 2.62 µM) | N#Cc1ccc(NC(=O)c2ccc(SCc3ncon3)nc2)c(C(=O)O)c1
65 | 0.5 (≈ 1.07 µM) | CCC(C(=O)Nc1cccc2cc(C(=O)Nc3ccc(C#N)cc3C(=O)O)[nH]c12)c1ccccc1 (stereo not drawn)
66 | 0.06 (≈ 0.129 µM) | Cn1c(C(=O)Nc2ccc(C#N)cc2C(=O)O)cc2cccc(-c3ccccc3C(F)(F)F)c21
67 | > 128 | Cc1cc(C(=O)Nc2ccc(Br)cc2C(=O)O)c(C)o1
68 | 4 (≈ 11.1 µM) | O=C(O)c1cc(Br)ccc1NC(=O)c1c[nH]c2ccccc12
69 | 4 (≈ 9.52 µM) | Cn1c(C(=O)Nc2ccc(I)cc2C(=O)O)cc2ccccc21
70 | 16 (≈ 27.1 µM) | Cc1sc(C(=O)Nc2ccc(Br)cc2C(=O)O)cc1S(=O)(=O)N1CC2CC1CN2Cc1ccccc1 (stereo not drawn)
71 | 8 (≈ 17.3 µM) | Cc1sc(C(=O)Nc2ccc(C#N)cc2C(=O)O)cc1S(=O)(=O)N1CCCCCCC1
72 | 0.5 (≈ 1.02 µM) | N#Cc1ccc(NC(=O)c2ccc(SCC(=O)c3ccc4c(c3)C(=O)NCO4)nn2)c(C(=O)O)c1
73 | 0.5 (≈ 1.1 µM) | N#Cc1ccc(NC(=O)c2cc3cccc(NC(=O)COc4ccccc4)c3[nH]2)c(C(=O)O)c1
74 | 1 (≈ 2.85 µM) | N#Cc1ccc(NC(=O)c2ncc(-c3ccc(F)cc3)o2)c(C(=O)O)c1
75 | 4 (≈ 12 µM) | N#Cc1ccc(NC(=O)c2cncc(-c3ccco3)c2)c(C(=O)O)c1

Row | MIC [µg/mL] | SMILES
76 | > 128 | CS(=O)(=O)c1ccc(-c2cnc(C(=O)Nc3ccc(C#N)cc3C(=O)O)cn2)cc1
77 | > 128 | N#Cc1ccc(-c2cnc(C(=O)Nc3ccc(C#N)cc3C(=O)O)o2)cc1
78 | 1 (≈ 3.09 µM) | N#Cc1ccc(NC(=O)c2nsc3ccccc23)c(C(=O)O)c1
79 | 2 (≈ 5.52 µM) | CC(=O)Nc1cccc2cc(C(=O)Nc3ccc(C#N)cc3C(=O)O)[nH]c12
80 | 2 (≈ 4.49 µM) | CC(C)CN1C(=O)c2ccc(C(=O)Nc3ccc(Br)cc3C(=O)O)cc2C1=O
81 | 0.5 (≈ 1.24 µM) | CCCCC(=O)Nc1cccc2cc(C(=O)Nc3ccc(C#N)cc3C(=O)O)[nH]c12
82 | 0.125 (≈ 0.339 µM) | CCCCCCOc1cnc(C(=O)Nc2ccc(C#N)cc2C(=O)O)cn1
83 | > 128 | N#Cc1ccc(NC(=O)c2csc(-c3cccnc3)n2)c(C(=O)O)c1
84 | 1 (≈ 2.47 µM) | CCCC(=O)Nc1ccc2cc(C(=O)Nc3ccc(C#N)cc3C(=O)O)n(C)c2c1
85 | 8 (≈ 17.9 µM) | Cn1c(C(=O)Nc2ccc(C#N)cc2C(=O)O)cc2cccc(NC(=O)N3CCOCC3)c21
86 | 4 (≈ 9.45 µM) | N#Cc1ccc(NC(=O)c2cc3ccccc3n2CCCc2ccccc2)c(C(=O)O)c1
87 | 16 (≈ 29 µM) | CC(=O)c1ccc(N2CCN(S(=O)(=O)c3cc(C(=O)Nc4ccc(C#N)cc4C(=O)O)sc3C)CC2)cc1
88 | 2 (≈ 4.76 µM) | CC(=O)OCC(=O)Nc1cccc2cc(C(=O)Nc3ccc(C#N)cc3C(=O)O)[nH]c12
89 | 0.125 (≈ 0.267 µM) | Cn1c(C(=O)Nc2ccc(Cl)cc2C(=O)O)cc2cccc(S(=O)(=O)c3ccccc3)c21
90 | > 128 | O=C(O)c1cc(Br)ccc1NC(=O)c1nc(N2CCOCC2)ncc1Cl
91 | 8 (≈ 21.4 µM) | N#Cc1ccc(NC(=O)c2cc(CN(CCO)CCO)on2)c(C(=O)O)c1
92 | 32 (≈ 59.4 µM) | Cc1sc(C(=O)Nc2ccc(Br)cc2C(=O)O)cc1S(=O)(=O)NCCc1ccc(N)cc1
93 | 64 (≈ 192 µM) | N#Cc1ccc(NC(=O)c2coc(-c3ccccc3)n2)c(C(=O)O)c1
94 | 0.125 (≈ 0.311 µM) | N#Cc1ccc(NC(=O)c2noc3ccc(-c4ccccc4F)cc23)c(C(=O)O)c1
95 | 4 | CSc1ccc(C(=O)Nc2ccc(C#N)cc2C(=O)O)cn1.Cl
96 | 8 (≈ 16.5 µM) | CCCN(CCC)S(=O)(=O)c1ccc(C(=O)Nc2ccc(Br)cc2C(=O)O)cn1
97 | 1 (≈ 2.3 µM) | CC(=O)OCC(=O)Nc1ccc2cc(C(=O)Nc3ccc(C#N)cc3C(=O)O)n(C)c2c1
98 | 4 (≈ 10.2 µM) | COCC(=O)Nc1cccc2cc(C(=O)Nc3ccc(C#N)cc3C(=O)O)[nH]c12
99 | 32 (≈ 77.6 µM) | N#Cc1ccc(NC(=O)c2cnc(-c3ccccc3C(F)(F)F)cn2)c(C(=O)O)c1
